This is an account of results in ChEMBL document CHEMBL1137407, “Identification and optimization of anthranilic sulfonamides as novel, selective cholecystokinin-2 receptor antagonists” (J Med Chem, 2006).

The structures appear in SMILES notation.

In series [1] the target is T1, Cholecystokinin receptor type A (Homo sapiens, UniProt P32238).
T1 sequence (P32238 whole entry): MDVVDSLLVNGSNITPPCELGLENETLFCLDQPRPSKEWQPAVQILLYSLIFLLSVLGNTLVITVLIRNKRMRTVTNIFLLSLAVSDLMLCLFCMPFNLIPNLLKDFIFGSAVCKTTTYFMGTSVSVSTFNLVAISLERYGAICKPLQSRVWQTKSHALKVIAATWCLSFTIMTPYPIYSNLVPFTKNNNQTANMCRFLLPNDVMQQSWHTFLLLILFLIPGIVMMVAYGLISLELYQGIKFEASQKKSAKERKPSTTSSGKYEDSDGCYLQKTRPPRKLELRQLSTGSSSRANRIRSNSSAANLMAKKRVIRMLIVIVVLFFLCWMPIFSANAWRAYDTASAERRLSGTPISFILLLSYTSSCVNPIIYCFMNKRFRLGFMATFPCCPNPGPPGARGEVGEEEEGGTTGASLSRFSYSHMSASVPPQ
Description: Displacement of [125I]CCK-8S from human CCK1R

A short description of series [2]: Stability in rat liver microsome after 30 mins. Format: ADME. Conditions: liver microsomes, read-out: Stability. (Liver microsomes are vesicles of endoplasmic reticulum, rich in cytochrome P450 enzymes.)
Series [3] is described as follows: Stability in human liver microsome after 30 mins. Format: ADME. As to conditions: liver microsomes, read-out: Stability.
A short description of series [4]: Oral bioavailability in Sprague-Dawley rat at 2 umol/kg, po. Format: ADME, organism-based. As to conditions: in vivo.
Series [5] can be described thus: Half life in Beagle dog at 2 umol/kg, iv. Conditions: in vivo. Format: ADME, organism-based, Canis lupus familiaris.
The nature of series [6]: Oral bioavailability in Beagle dog at 20 umol/kg, po. Format: ADME, organism-based, Canis lupus familiaris. Conditions: in vivo.
Series [7] is described as follows: Clearance in Beagle dog at 2 umol/kg, iv. The series is classed as ADME, organism-based, Canis lupus familiaris. Conditions: in vivo.
Series [8] can be described thus: Clearance in Sprague-Dawley rat at 2 umol/kg, iv. The series is classed as ADME, organism-based. Conditions: in vivo.
A short description of series [9]: Half life in Sprague-Dawley rat at 2 umol/kg, iv. Conditions: in vivo. Format: ADME, organism-based.
Series [10] relates to Rattus norvegicus. The series can be described thus: Inhibition of pentagastrin-stimulated gastric acid secretion in po dosed conscious gastric fistula Sprague-Dawley rat. As to conditions: Stomach. Format: functional.
The target in series [11] is T2, Gastrin/cholecystokinin type B receptor (Homo sapiens, UniProt P32239).
T2 sequence (P32239 whole entry): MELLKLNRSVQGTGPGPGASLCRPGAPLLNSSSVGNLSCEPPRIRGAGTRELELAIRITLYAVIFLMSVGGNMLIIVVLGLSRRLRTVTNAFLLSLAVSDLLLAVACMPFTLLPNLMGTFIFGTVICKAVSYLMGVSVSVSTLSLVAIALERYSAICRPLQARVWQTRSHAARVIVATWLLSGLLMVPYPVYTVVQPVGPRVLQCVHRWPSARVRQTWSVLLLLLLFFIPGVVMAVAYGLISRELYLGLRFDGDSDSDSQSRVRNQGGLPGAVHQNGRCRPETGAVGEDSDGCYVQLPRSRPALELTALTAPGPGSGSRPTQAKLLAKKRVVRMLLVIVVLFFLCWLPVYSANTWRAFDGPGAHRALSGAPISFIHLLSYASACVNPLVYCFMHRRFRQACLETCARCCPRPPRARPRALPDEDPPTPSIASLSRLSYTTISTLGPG
Description: Displacement of [125I]CCK-8S from human CCK2R

Series [12] can be described thus: Dissociation constant, pKa of the compound. Format: physicochemical.

The term Ki denotes a measure of affinity in units of concentration, obtained from inhibition or displacement. For the compound `CC1CCCCN1C(=O)c1ccc(Cl)cc1NS(=O)(=O)c1cccc2nsnc12` (stereo unspecified), the inhibition constant Ki in series [1] (read-out: Ki) is over 10 µM. The remaining at 0.5 h in series [2] came out at 3%; in series [3], 14%.

Consider `O=C(c1cc(Cl)c(Cl)cc1NS(=O)(=O)c1cccc2nsnc12)N1CCCCC1`, for which the Ki in series [1] (read-out: Ki) is over 10 µM. The remaining at 0.5 h in series [2] and in series [3] was 8% throughout.

As usually defined, the bioavailability is dose-corrected exposure relative to a reference, in per cent. By half-life is commonly meant the time needed for the level to fall by half in the phase considered. Low readings indicate fast loss, high ones slow loss. As usually defined, the clearance is the volume of plasma or blood freed of the substance per unit of time. Lower therefore signals a low capacity for elimination. Usually ED50 stands for the midpoint of the dose-response relation. High values mean a need for a large dose, low ones an effect at a small dose. `O=C(c1ccc(I)cc1NS(=O)(=O)c1cccc2nccnc12)N1CCOCC1`: the Ki in series [1] (read-out: Ki) was over 10 µM. The bioavailability in series [4] amounted to 55%; in series [6], 51%. Also, the remaining at 0.5 h in [2] turned out to be 46%; in [3], 60%. The half-life in series [5] is 90 min; in series [9] it was 37.2 min. Also, the clearance in series [7] is 1.62 mL/min/kg; in [8], 6 mL/min/kg. Moreover, the ED50 in [10] came out at 0.57 mg/kg.

On to `CN(Cc1ccccc1)C(=O)c1ccc(Cl)cc1NS(=O)(=O)c1cccc2nsnc12`, for which the Ki was over 10 µM in series [1] (read-out: Ki) and 0.0316 µM in [11] (read-out: Log Ki (converted)). In addition, the remaining at 0.5 h in [3] stood at 2.2%.

As to `O=C(c1ccc(Cl)cc1NS(=O)(=O)c1cccc2nsnc12)N1CCCCCC1`, the Ki in series [1] (read-out: Ki) is over 10 µM; in series [11] (read-out: Log Ki (converted)), 0.0631 µM. The figures for the remaining at 0.5 h in series [2] and in series [3] were 2% and 11%, respectively.

What is called pKa is the negative logarithm of the acid dissociation constant. Consider `O=C(c1ccc(Cl)cc1NS(=O)(=O)c1cccc2nonc12)N1CCCCC1`, for which the pKa in series [12] worked out at 6.18. The Ki was over 10 µM in series [1] (read-out: Ki) and 1.58 µM in [11] (read-out: Log Ki (converted)).

For `O=C(c1cc(Cl)ccc1NS(=O)(=O)c1cccc2nsnc12)N1CCCCC1`, the values for the Ki in series [1] (read-out: Log Ki (converted)) and in [11] (read-out: Log Ki (converted)) were over 10 µM and 0.398 µM, respectively. The remaining at 0.5 h in series [2] is 9%; in [3] it was 16%. The clearance in series [8] is 7 mL/min/kg. The half-life in [9] was 21 min.

For `O=C(c1ccccc1NS(=O)(=O)c1cc2ccccc2[nH]1)N1CCCCC1`, the Ki in series [1] (read-out: Log Ki (converted)) was 7.94 µM; in series [11] (read-out: Ki), over 10 µM.

Regarding `Nc1ccc(C(=O)N2CCCCC2)c(NS(=O)(=O)c2cccc3nsnc23)c1`, the Ki in series [1] (read-out: Ki) is over 10 µM; in series [11] (read-out: Log Ki (converted)), 7.94 µM.

Turning to `O=C(c1ccc(Br)cc1NS(=O)(=O)c1cccc2nccnc12)N1CCCCC1`, the Ki in series [1] (read-out: Ki) was over 10 µM; in series [11] (read-out: Log Ki (converted)) it was 0.0631 µM. Also, in series [4], the bioavailability amounted to 50%. In addition, the remaining at 0.5 h in series [2] was determined as 8%; in series [3], 21%. This compound had a clearance in [8] of 13.8 mL/min/kg. This compound gave a half-life in series [9] of 20.4 min.

For `O=C(c1ccc(F)cc1NS(=O)(=O)c1cccc2nccnc12)N1CCOCC1`, the results for the Ki in series [1] (read-out: Ki) and in [11] (read-out: Log Ki (converted)) were over 10 µM and 3.98 µM, respectively.

Turning to `CC(C)c1ccc(C(=O)N2CCCCC2)c(NS(=O)(=O)c2cccc3nsnc23)c1`, the results for the inhibition constant Ki in series [1] (read-out: Ki) and in series [11] (read-out: Log Ki (converted)) were over 10 µM and 0.316 µM, respectively.

For the compound `O=C(c1cccc(Cl)c1NS(=O)(=O)c1cccc2nsnc12)N1CCCCC1`, the inhibitory constant (Ki) in [1] (read-out: Ki) and in series [11] (read-out: Ki) was over 10 µM throughout.

Regarding `O=C(c1ccc(Br)cc1NS(=O)(=O)c1cccc2nsnc12)N1CCOCC1`, the Ki in [1] (read-out: Ki) was over 10 µM; in series [11] (read-out: Log Ki (converted)), 0.126 µM.
